Data set [1] concerns anesthetized male Hartley guinea pigs. Briefly: Hemodynamic and electrocardiographic effects in anesthetized male Hartley guinea pigs. As to conditions: guinea pig, 10 mg/kg single 5-min i.v. infusion, monitored up to 30 min, n = 6. The data set is classed as in vivo. The method, then:
Male Hartley guinea pigs (weighing 400–500 g) were anesthetized with 35 mg/kg sodium pentobarbital i.p. and let under spontaneous breathing conditions. The body temperature was maintained at 37.5 ± 0.5 °C throughout the experiment. For implantation of vascular catheters, cutaneous incision, subcutaneous and muscular dissections were performed after application of local anesthetic (lidocain, 20 mg/kg). A carotid artery and a jugular vein were catheterized to allow recording of arterial blood pressure and intravenous administration of the drug, respectively. The arterial micromanometer catheter was connected to a pressure transducer. For the electrocardiogram recording, five electrodes were inserted in the subcutaneous layer of fore- and hind-limb. The pressure transducer and ECG electrodes were linked to Gould pre-amplifiers. The amplifiers were connected to a Notocord-Hem computerized data acquisition system and recorded at a sampling rate of 1000 Hz. Either lead I or lead II were recorded, depending on which the better separation of T wave from P wave of the next complex was achieved.
Cpd 38 was dissolved in a 75% PEG400 aqueous solution and administered to guinea pigs (n = 6) at 10 mg/kg as a single 5-min intravenous infusion under a volume of 0.5 mL/kg. Control animals (n = 10) received the vehicle only, under the same experimental conditions. […]

The nature of data set [2]: Plasma and heart concentrations after 5-min i.v. administration in anesthetized mongrel dogs. As to conditions: iv, dog, 10 mg/kg 5-min i.v. It is filed as in vivo. The procedure:
Cpd 38 was dissolved in a 75% PEG400 aqueous solution and administered to dogs (n = 3) at 10 mg/kg as a single 5-min intravenous infusion under a volume of 0.5 mL/kg. Control animals (n = 3) received the vehicle only, under the same experimental conditions.
Blood samples were drawn from a femoral artery at 10 and 60 minutes after the beginning of the drug perfusion and after centrifugation plasma samples were stored frozen at −20 °C until analysis.
At the end of the experiment (around 60 minutes following the beginning of the drug perfusion), the heart was removed and a few grams of tissue were collected from right and left ventricles stored frozen at - 20 °C until analysis.
Analysis of samples was performed using an exploratory LC-MS-MS assay method. Plasma (LOQ of 2 ng/mL) and tissue (LOQ of 3 ng/g) concentrations of Cpd 38 were determined.

Data set [3] in a line: Plasma and heart concentrations after 5-min i.v. administration in anesthetized male Hartley guinea pigs. It is filed as in vivo. The conditions noted are these: iv, guinea pig, 10 mg/kg 5-min i.v. The procedure: Cpd 38 was dissolved in a 75% PEG400 aqueous solution and administered to guinea pigs (n = 6) at 10 mg/kg as a single 5-min intravenous infusion under a volume of 0.5 mL/kg. Control animals (n = 10) received the vehicle only, under the same experimental conditions.
Blood samples were drawn from a carotid artery at 10 and 30 minutes after the beginning of the drug perfusion and after centrifugation plasma samples were stored frozen until analysis.
At the end of the experiment (around 30 minutes following the beginning of the drug perfusion), the heart was removed and a few grams of tissue were collected from right and left ventricles stored frozen at - 20 °C until analysis.
Analysis of samples was performed using an exploratory LC-MS-MS assay method. Plasma (LOQ of 2 ng/mL) and tissue (LOQ of 10 ng/g) concentrations of Cpd 38 (expressed as active ingredient).were determined.

In data set [4] the test system is anesthetized mongrel dogs. Briefly: Hemodynamic, electrocardiographic and electrophysiological effects in anesthetized mongrel dogs. The data set is classed as in vivo. As to conditions: dog, 10 mg/kg single 5-min i.v. infusion, monitored up to 60 min, n = 3. The method, then: Six fasted adult mongrel dogs (weighing 18–26 kg) were anesthetized with 20 mg/kg sodium thiopental i.v. Animals were artificially ventilated with a gaseous mixture composed of O^2/air supplemented with around 1.5% end-tidal fraction of isoflurane. Tidal volume and respiratory rate was set at 20 mL/kg and 16 breaths/min. Arterial blood gas was controlled and respiratory adjusted to maintain pH between 7.36 and 7.44, PaO^2 > 80 mmHg and PaCO^2 < 40 mmHg. Four limbs electrodes were positioned to obtain a surface ECG. Two bipolar electrodes were positioned in the right atrium via a jugular access, one to record the atrial electrogram and the second one to stimulate the atrium. A bipolar electrode and a quadripolar electrode were inserted via venous and arterial femoral access and positioned in the right ventricular apex and in the His bundle region, respectively. These electrodes were connected to a programmable stimulator and to a computerized physiograph system. […]
The auricular diastolic stimulation threshold was evaluated with rectangular current pulse (2 ms duration) increased in steps of 0.1 mA and delivered at fixed rate pacing (S1S1) of 400 or 350 ms in function of animal basal cycle length. […]

In data set [5] the target is NURR1/NOT nuclear receptor (Homo sapiens, UniProt P43354). Briefly: Gal4 reporter gene assay (EC50 / Emax Gal4). As to conditions: for Emax Gal4: Table 1. It is filed as cell-based.
The mark [6] stands for this setting: heart (right and left ventricles), read-out: Heart concentration.
[7] abbreviates: plasma, mean ± SD, n = 3, read-out: Total plasma concentration.
The mark [8] stands for this setting: plasma, read-out: Total plasma concentration.
The mark [9] stands for this setting: plasma, mean ± SD, n = 6, read-out: Total plasma concentration.
Setting [10] is: Table 1, replacements of the hydroxymethyl of cpd 4, read-out: EC50 Gal4.

Like-named read-outs stand apart in the source and are kept apart here.

NURR1/NOT nuclear receptor, sequence (P43354 whole entry, the tested form may be a part): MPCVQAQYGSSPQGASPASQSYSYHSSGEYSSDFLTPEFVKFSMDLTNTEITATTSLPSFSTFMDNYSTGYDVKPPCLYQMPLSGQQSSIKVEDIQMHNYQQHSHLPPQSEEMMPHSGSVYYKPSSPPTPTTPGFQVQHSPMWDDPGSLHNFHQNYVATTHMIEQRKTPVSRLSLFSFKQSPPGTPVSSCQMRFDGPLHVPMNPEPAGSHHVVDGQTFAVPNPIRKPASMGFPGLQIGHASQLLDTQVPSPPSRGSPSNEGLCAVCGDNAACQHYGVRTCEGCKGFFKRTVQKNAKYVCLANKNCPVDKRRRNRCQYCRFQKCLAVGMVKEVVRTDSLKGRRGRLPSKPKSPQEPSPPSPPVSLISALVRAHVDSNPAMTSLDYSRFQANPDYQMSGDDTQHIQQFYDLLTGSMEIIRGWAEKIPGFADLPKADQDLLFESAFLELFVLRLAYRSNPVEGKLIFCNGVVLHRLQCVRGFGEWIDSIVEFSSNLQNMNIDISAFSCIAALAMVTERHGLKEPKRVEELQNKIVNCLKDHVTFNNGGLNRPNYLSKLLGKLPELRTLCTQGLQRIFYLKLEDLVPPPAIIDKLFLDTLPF

As to `CC(C)(O)c1cccc(-c2ccc3nc(-c4ccc(Cl)cc4)cn3c2)c1` [Cpd 38, 2-(3-[2-(4-Chlorophenyl)imidazo[1,2-a]pyridin-6-yl]phenyl)propan-2-ol], the “Hemodynamic and ECG effects” value in data set [1] is “No major hemodynamic and ECG effects were observed”. The concentration at 60 min in data set [2] (heart (right and left ventricles), mean ± SD, n = 3, read-out: Heart concentration) worked out at 14600 ± 2700 ng/g; in data set [2] (setting [6]), 40.2 µM; in data set [2] (setting [7]), 10.1 ± 0.769 µg/mL; in data set [2] (setting [8]), 27.8 µM. In addition, the concentration at 10 min is 23.4 ± 2.83 µg/mL in data set [2] (setting [7]), 64.5 µM in data set [2] (setting [8]), 4.66 ± 1.35 µg/mL in data set [3] (setting [9]) and 12.8 µM in data set [3] (setting [8]). Moreover, the concentration at 30 min stood at 6010 ± 964 ng/g in data set [3] (heart (right and left ventricles), mean ± SD, n = 6, read-out: Heart concentration); 16.6 µM in data set [3] (setting [6]); 2.57 ± 0.533 µg/mL in data set [3] (setting [9]); 7.1 µM in data set [3] (setting [8]). The “Hemodynamic, ECG and electrophysiological effects” value in data set [4] is “No major hemodynamic, ECG and electrophysiological effects were observed”.

`OC1(c2cccc(-c3ccc4nc(-c5ccc(Cl)cc5)cn4c3)c2)CCOCC1` [Cpd 40, 4-(3-(2-(4-chlorophenyl)imidazo[1,2-a]pyridin-6-yl)phenyl)tetrahydro-2H-pyran-4-ol] gave a melting point of 224 to 225 °C.

With `CC(O)(CO)c1cccc(-c2ccc3nc(-c4ccc(Cl)cc4)cn3c2)c1` (stereo not drawn) [Cpd 41, 2-(3-(2-(4-chlorophenyl)imidazo[1,2-a]pyridin-6-yl)phenyl)propane-1,2-diol], the melting point was in the range of 192 to 194 °C.

Consider `Cc1cccc(-c2ccc3nc(-c4ccc(Cl)cc4)cn3c2)c1` [Cpd S1, 2-(4-Chlorophenyl)-6-(m-tolyl)imidazo[1,2-a]pyridine], for which the melting point lay within 145 to 147 °C.

Compound `COCc1cccc(-c2ccc3nc(-c4ccc(Cl)cc4)cn3c2)c1` [Cpd S2, 2-(4-Chlorophenyl)-6-(3-(methoxymethyl)phenyl)imidazo[1,2-a]pyridine] showed a melting point of 135 to 137 °C.

Compound `CN(C)Cc1cccc(-c2ccc3nc(-c4ccc(Cl)cc4)cn3c2)c1` [Cpd S3, 1-(3-(2-(4-chlorophenyl)imidazo[1,2-a]pyridin-6-yl)phenyl)-N,N-dimethylmethanamine] registered a melting point of 290 to 292 °C.

As to `Clc1ccc(-c2cn3cc(-c4cccc(CN5CCCC5)c4)ccc3n2)cc1` [Cpd S4, 1-(3-(2-(4-chlorophenyl)imidazo[1,2-a]pyridin-6-yl)phenyl)-N-pyrolidine], the concentration for a half-maximal effect (EC50) in data set [5] (setting [10]) is greater than 3 µM.

For `Clc1ccc(-c2cn3cc(-c4cccc(CN5CCOCC5)c4)ccc3n2)cc1` [Cpd S5, 1-(3-(2-(4-chlorophenyl)imidazo[1,2-a]pyridin-6-yl)phenyl)-N-morpholine], the EC50 in data set [5] (setting [10]) was greater than 3 µM.

`NC(=O)c1cccc(-c2ccc3nc(-c4ccc(Cl)cc4)cn3c2)c1` [Cpd S7, 3-(2-(4-chlorophenyl)imidazo[1,2-a]pyridin-6-yl)benzamide] showed a melting point of 246 to 248 °C. Further, the “Emax Gal4” value in data set [5] was 210 ± 5. The 50% effective concentration (EC50) in data set [5] (setting [10]) is 1.58 ± 0.035 µM.

The compound `CNC(=O)c1cccc(-c2ccc3nc(-c4ccc(Cl)cc4)cn3c2)c1` [Cpd S8, 3-(2-(4-chlorophenyl)imidazo[1,2-a]pyridin-6-yl)-N-methylbenzamide] yielded a melting point of 225 to 227 °C. Further, the “Emax Gal4” value in data set [5] is given as 226 ± 66. The EC50 in data set [5] (setting [10]) came out at 0.087 ± 0.028 µM.

Turning to `CCN(CC)C(=O)c1cccc(-c2ccc3nc(-c4ccc(Cl)cc4)cn3c2)c1` [Cpd S9, 3-(2-(4-chlorophenyl)imidazo[1,2-a]pyridin-6-yl)-N,N-diethylbenzamide], the melting point fell in the range of 162 to 164 °C.

The compound `N#Cc1cccc(-c2ccc3nc(-c4ccc(Cl)cc4)cn3c2)c1` [Cpd S10, 3-(2-(4-chlorophenyl)imidazo[1,2-a]pyridin-6-yl)benzonitrile] registered a melting point of 195 to 197 °C.

Consider `CC(C)CC(O)c1cccc(-c2ccc3nc(-c4ccc(Cl)cc4)cn3c2)c1` (stereo not drawn) [Cpd S15, 1-(3-(2-(4-chlorophenyl)imidazo[1,2-a]pyridin-6-yl)phenyl)-3-methylbutan-1-ol], for which the EC50 in data set [5] (Table 2, alkyl or aryl groups on the carbinol, read-out: EC50 Gal4 t) is greater than 3 µM.

Values taken from publication PMC6820105, “Data on synthesis, ADME and pharmacological properties and early safety pharmacology evaluation of a series of novel NURR1/NOT agonist potentially useful for the treatment of Parkinson's disease” (Data in Brief, 2019).
